Holding throughout (assay type): functional
Experiment [1] concerns Candida albicans. Kind of experiment: Inhibitory activity against the Candida albicans (40 clinical isolates), determined at pH-7.2.
Experiment [2] concerns Candida. As to the kind of experiment: 50% inhibitory activity against the Candida. species (40 clinical isolates) was determined at pH-7.2.
In experiment [3] the test system is Candida. As to the kind of experiment: Percent resistance against all Candida. species (40 clinical isolates) at 256 micro g/mL (pH=7.2), activity is expressed as R%.
The subject of experiment [4] is Candida albicans. Kind of experiment: Resistance against Candida. albicans (40 clinical isolates) at 256 ug/mL (pH=7.2), activity is expressed as R%.
In experiment [5] the test system is Candida. As to the kind of experiment: Inhibitory activity against Candida. species (40 clinical isolates), determined at pH-5.8.
For experiment [6], the system named is Candida albicans. Kind of experiment: 50% inhibitory activity against Candida albicans (40 clinical isolates) determined at pH-5.8.
The test system of experiment [7] is Candida albicans. As to the kind of experiment: 50% inhibitory activity against Candida albicans (40 clinical isolates) determined at pH-7.2. The settings on record: Candida albicans; read-out: MIC50.
The test system of experiment [8] is Candida albicans. Kind of experiment: Inhibitory activity against Candida albicans (40 clinical isolates), determined at pH-7.2.
Experiment [9] concerns Candida albicans. As to the kind of experiment: Inhibitory activity against Candida albicans (40 clinical isolates), determined at pH-5.8.
Experiment [10] deals with Candida. As to the kind of experiment: Inhibitory activity against Candida. species. (40 clinical isolates), determined at pH-7.2.
The test system of experiment [11] is Candida albicans. Kind of experiment: Inhibitory activity against the Candida albicans (40 clinical isolates), determined at pH-5.8.
Experiment [12] deals with Candida albicans. As to the kind of experiment: Percent resistance against Candida albicans (40 clinical isolates) at 256 micro g/mL (pH=5.8), activity is expressed as R%.
The test system of experiment [13] is Candida. Kind of experiment: 90% inhibitory activity against the Candida. species (40 clinical isolates) was determined at pH-7.2.
The test system of experiment [14] is Candida. Kind of experiment: Inhibitory activity against Candida. species. (40 clinical isolates), determined at pH-5.8.
The test system of experiment [15] is Candida. As to the kind of experiment: Resistance against all Candida. species (40 clinical isolates) at 256 micro g/mL (pH=5.8). Activity is expressed as R%.
In experiment [16] the test system is Candida. As to the kind of experiment: 90% inhibitory activity against Candida. species (40 clinical isolates) determined at pH-7.2.
In a further experiment the test system is Oryctolagus cuniculus. As to the kind of experiment: Topical comparison with bifonazole in white male rabbits at 1% concentration of compound.
Experiment [17] has as its system Candida albicans. Kind of experiment: The compound was tested for percent resistance against Candida. albicans (40 clinical isolates) at 256 micro g/mL (pH=7.2), activity is expressed as R%.

≈ marks a conversion by molar mass, not a printed value. Where “and” joins values, the source holds several entries; their conditions need not be identical. Identical values can stand only once.

For `O=[N+]([O-])c1ccc(C(c2c[nH]cc2-c2ccccc2)n2ccnc2)cc1` (stereo unspecified), the MIC90 – broadly, the lowest concentration that inhibits either 90% of growth or 90% of the strains tested, depending on the study – against Candida albicans [1] is 64 µg/mL (≈ 186 µM); against Candida [5], above 256 µg/mL; against Candida albicans [11], 128 µg/mL (≈ 372 µM); against Candida [13], 256 µg/mL (≈ 743 µM). Besides, the MIC50 (as a rule, the lowest concentration that inhibits either 50% of growth or 50% of the strains tested, depending on the study) against Candida [2] was found to be 256 µg/mL (≈ 743 µM); in the experiment with Candida [5] it was 128 µg/mL (≈ 372 µM); in the experiment on Candida albicans [6], 8 µg/mL (≈ 23.2 µM); in the experiment with Candida albicans [7], 8 µg/mL (≈ 23.2 µM). The R stood at 20% with Candida [3], 0% in the experiment with Candida albicans [4], 0% with Candida albicans [12] and 0% in the experiment with Candida [15]. Further, the MIC (usually the lowest concentration that inhibits growth of the organism) was 5.18 µg/mL (≈ 15 µM) in the experiment on Candida albicans [8], 56.7 µg/mL (≈ 165 µM) against Candida albicans [9], above 192 µg/mL with Candida [10] and 182 µg/mL (≈ 529 µM) against Candida [14].

Turning to `Nc1ccc(C(c2c[nH]cc2-c2ccccc2)n2ccnc2)cc1` (stereo unspecified), the MIC90 against Candida albicans [1] was 128 µg/mL (≈ 407 µM); against Candida [5], above 256 µg/mL; with Candida albicans [11], 256 µg/mL (≈ 814 µM); against Candida [13], above 256 µg/mL. In addition, the MIC50 against Candida [2] was 256 µg/mL (≈ 814 µM); with Candida [5], 256 µg/mL (≈ 814 µM); against Candida albicans [6], 128 µg/mL (≈ 407 µM); in the experiment on Candida albicans [7] it was 128 µg/mL (≈ 407 µM). Also, the R was found to be 80% with Candida [3], 0% in the experiment with Candida albicans [4], 0% with Candida albicans [12] and 80% in the experiment with Candida [15]. Also, the MIC in the experiment on Candida albicans [8] was 162 µg/mL (≈ 515 µM); against Candida albicans [9], 142 µg/mL (≈ 453 µM); against Candida [10], above 331 µg/mL; with Candida [14], above 327 µg/mL.

In the case of `Fc1ccc(C(c2c[nH]cc2-c2ccc(Cl)cc2Cl)n2ccnc2)cc1` (stereo unspecified), the MIC90 with Candida albicans [1], against Candida [5], in the experiment with Candida albicans [11] and against Candida [16] was 32 µg/mL (≈ 82.8 µM) each time. Besides, the MIC50 was 16 µg/mL (≈ 41.4 µM) in the experiment on Candida [2], 16 µg/mL (≈ 41.4 µM) against Candida [5], 2 µg/mL (≈ 5.18 µM) against Candida albicans [6] and 8 µg/mL (≈ 20.7 µM) in the experiment with Candida albicans [7]. Also, the R with Candida [3], in the experiment on Candida albicans [4], in the experiment on Candida albicans [12] and with Candida [15] was 0% in each case. Further, the MIC was determined as 10.4 µg/mL (≈ 26.9 µM) against Candida albicans [8], 7.8 µg/mL (≈ 20.2 µM) against Candida albicans [9], 20.9 µg/mL (≈ 54.1 µM) against Candida [10] and 21.5 µg/mL (≈ 55.7 µM) with Candida [14].

Consider `Clc1ccc(C(c2c[nH]cc2-c2ccccc2)n2ccnc2)cc1` (stereo unspecified), for which the MIC90 came out at 128 µg/mL (≈ 383 µM) in the experiment with Candida albicans [1], 64 µg/mL (≈ 192 µM) against Candida [5], 64 µg/mL (≈ 192 µM) against Candida albicans [11] and 128 µg/mL (≈ 383 µM) against Candida [13]. The MIC50 against Candida [2] was 32 µg/mL (≈ 95.9 µM); with Candida [5], 64 µg/mL (≈ 192 µM). Besides, the R in the experiment with Candida [3], in the experiment with Candida albicans [4], in the experiment on Candida albicans [12] and in the experiment on Candida [15] was 0% in each case. Further, the minimum inhibitory concentration (MIC) against Candida albicans [8] was 21.3 µg/mL (≈ 63.8 µM); with Candida albicans [9], 47.3 µg/mL (≈ 142 µM); against Candida [10], 40 µg/mL (≈ 120 µM); against Candida [14], 51.4 µg/mL (≈ 154 µM).

As for `Clc1ccc(C(c2c[nH]cc2-c2ccc(Cl)c(Cl)c2)n2ccnc2)cc1` (stereo unspecified), the MIC90 in the experiment on Candida albicans [1] stood at 16 µg/mL (≈ 39.7 µM); in the experiment on Candida [5], 64 µg/mL (≈ 159 µM); against Candida albicans [11] it was 16 µg/mL (≈ 39.7 µM); against Candida [16], 64 µg/mL (≈ 159 µM). Also, the MIC50 in the experiment with Candida [2] is 32 µg/mL (≈ 79.5 µM); in the experiment with Candida [5], 32 µg/mL (≈ 79.5 µM); with Candida albicans [6], 4 µg/mL (≈ 9.93 µM); in the experiment on Candida albicans [7] it was 4 µg/mL (≈ 9.93 µM). Further, the R with Candida [3], with Candida albicans [4], with Candida albicans [12] and in the experiment with Candida [15] was 0% in each case. For the same compound, the MIC in the experiment with Candida albicans [8] is 9.6 µg/mL (≈ 23.8 µM); against Candida albicans [9] it was 8.9 µg/mL (≈ 22.1 µM); with Candida [10], 39.2 µg/mL (≈ 97.3 µM); in the experiment on Candida [14], 30.2 µg/mL (≈ 75 µM).

`c1ccc(-c2ccc(C(c3ccccc3)n3ccnc3)cc2)cc1` (stereo unspecified) [BIFONAZOLE]: the MIC90 in the experiment on Candida albicans [1] was determined as 16 µg/mL (≈ 51.5 µM); in the experiment with Candida [5], 8 µg/mL (≈ 25.8 µM); in the experiment with Candida albicans [11], 16 µg/mL (≈ 51.5 µM); in the experiment on Candida [13], 16 µg/mL (≈ 51.5 µM). The MIC50 in the experiment with Candida [2] turned out to be 4 µg/mL (≈ 12.9 µM); with Candida [5] it was 8 µg/mL (≈ 25.8 µM); against Candida albicans [6], 4 µg/mL (≈ 12.9 µM); in the experiment with Candida albicans [7] it was 4 µg/mL (≈ 12.9 µM). The R in the experiment with Candida [3], in the experiment with Candida albicans [12], with Candida [15] and with Candida albicans [17] was 0% each time. For the same compound, the minimum inhibitory concentration (MIC) with Candida albicans [8] was 4.1 µg/mL (≈ 13.2 µM); with Candida albicans [9], 3.72 µg/mL (≈ 12 µM); in the experiment with Candida [10] it was 4.5 µg/mL (≈ 14.5 µM); in the experiment on Candida [14], 7.5 µg/mL (≈ 24.2 µM). The Percentage of animals in the experiment with Oryctolagus cuniculus was 3% and 6% and 10%.

As to `Clc1ccc(COC(Cn2ccnc2)c2ccc(Cl)cc2Cl)c(Cl)c1` (stereo unspecified) [MICONAZOLE], the MIC90 in the experiment on Candida albicans [1], in the experiment on Candida [5], in the experiment with Candida albicans [11] and against Candida [16] was 32 µg/mL (≈ 76.9 µM) each time. For the same compound, the MIC50 in the experiment on Candida [2] turned out to be 16 µg/mL (≈ 38.4 µM); with Candida [5] it was 2 µg/mL (≈ 4.81 µM); against Candida albicans [6], 0.5 µg/mL (≈ 1.2 µM); with Candida albicans [7] it was 2 µg/mL (≈ 4.81 µM). Besides, the R with Candida [3], in the experiment on Candida albicans [4], in the experiment on Candida albicans [12] and in the experiment on Candida [15] was 0% each time. Moreover, the MIC against Candida albicans [8] was found to be 6.1 µg/mL (≈ 14.7 µM); with Candida albicans [9], 5.9 µg/mL (≈ 14.2 µM); in the experiment with Candida [10], 13 µg/mL (≈ 31.2 µM); against Candida [14], 13 µg/mL (≈ 31.2 µM).

For the origin of these results see ChEMBL document CHEMBL1128323, “Antifungal agents. 9. 3-Aryl-4-[alpha-(1H-imidazol-1-yl)arylmethyl]pyrroles: a new class of potent anti-Candida agents” (1995).
